In the supplement of paper PMC11061612:

Key:
[1] = tested on: IM-95 (Gastric Carcinoma); assay: Bliss excess, mean over the matrix (fraction); higher = more synergy;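 further: after 72 h of two-drug dosing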
Summary of the method: (§1)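 Cell lines grown in DMEM/F12 or RPMI with 10% FBS were plated in 1536-well plates and held 24 hours at 37°C, 5% CO2 before 72 hours of exposure to two-drug dose matrices, with DMSO typically at 0.2%. CellTiter-Glo 2.0 luminescence gave viability, which was converted to inhibition. Vehicle wells were set to 0 and blank wells to 1. Combination Emax is the second-highest inhibition in the matrix, and Bliss excess is the observed combination effect minus the expected EA + EB − EA·EB, where EA and EB are the single-agent effects.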

[2] = tested on: COR-L279 (Small Cell Lung Carcinoma); assay: combination Emax (second highest fraction inhibited in the dose matrix, 72 h); higher = more inhibition; extreme values may be limits of the assay
Summary of the method: as §1

[3] = tested on: CW-2 (Colorectal Carcinoma); assay: as above
Summary of the method: as §1

[4] = tested on: DAN-G (Pancreatic Carcinoma); assay: as above
Summary of the method: as §1

[5] = tested on: DMS-114 (Small Cell Lung Carcinoma); assay: as above
Summary of the method: as §1

[6] = tested on: ESO51 (Esophageal Adenocarcinoma); assay: as above
Summary of the method: as §1

[7] = tested on: HCC1187 (Breast Carcinoma); assay: as above
Summary of the method: as §1

[8] = tested on: KYSE-270 (Esophageal Squamous Cell Carcinoma); assay: as above
Summary of the method: as §1

M059J (Glioblastoma) = assay: as above
Summary of the method: as §1

[9] = tested on: MN-60 (B-Lymphoblastic Leukemia); assay: as above
Summary of the method: as §1

NCI-H2731 (Mesothelioma) = assay: as above
Summary of the method: as §1

[10] = tested on: NCI-H3122 (Lung Adenocarcinoma); assay: as above
Summary of the method: as §1

[11] = tested on: NCI-H661 (Non-Small Cell Lung Carcinoma); assay: as above
Summary of the method: as §1

RD (Rhabdomyosarcoma) = assay: as above
Summary of the method: as §1

[12] = tested on: SK-GT-2 (Gastric Carcinoma); assay: as above
Summary of the method: as §1

[13] = tested on: SK-GT-4 (Esophageal Adenocarcinoma); assay: as above
Summary of the method: as §1

[14] = tested on: SNU-398 (Hepatocellular Carcinoma); assay: as above
Summary of the method: as §1

[15] = tested on: SU-DHL-5 (B-Cell Non-Hodgkin's Lymphoma); assay: as above
Summary of the method: as §1

[16] = tested on: T-T (Esophageal Squamous Cell Carcinoma); assay: as above
Summary of the method: as §1

[17] = tested on: VMRC-RCZ (Kidney Carcinoma); assay: as above
Summary of the method: as §1

SMILES	Bliss excess [1]	combination Emax [2]	combination Emax [3]	combination Emax [4]	combination Emax [5]	combination Emax [6]	combination Emax [7]	combination Emax [8]	combination Emax (M059J (Glioblastoma))	combination Emax [9]	combination Emax (NCI-H2731 (Mesothelioma))	combination Emax [10]	combination Emax [11]	combination Emax (RD (Rhabdomyosarcoma))	combination Emax [12]	combination Emax [13]	combination Emax [14]	combination Emax [15]	combination Emax [16]	combination Emax [17]
CCN(CCO)CCCOc1ccc2c(Nc3cc(CC(=O)Nc4cccc(F)c4)[nH]n3)ncnc2c1 [AZD2811] + C=CCn1c(=O)c2cnc(Nc3ccc(N4CCN(C)CC4)cc3)nc2n1-c1cccc(C(C)(C)O)n1 [AZD1775] (first compound max 1 µM, partner max 1 µM)	0.0486	0.662	0.274	0.623	0.243	0.627	0.839	0.63	0.553	0.291	0.382	0.627	0.543	0.347	0.769	0.363	0.417	1	0.303	0.217
CCN(CCO)CCCOc1ccc2c(Nc3cc(CC(=O)Nc4cccc(F)c4)[nH]n3)ncnc2c1 [AZD2811] + C[C@@H]1COCCN1C2=NC(=NC(=C2)C3(CC3)[S@](=N)(=O)C)C4=C5C=CNC5=NC=C4 [AZD6738] (first compound max 1 µM, 7x7, partner max 10 µM)	0.0291	0.832	0.524	0.648	0.435	0.751	0.846	0.764	0.646	0.477	0.308	0.621	0.441	0.252	0.289	0.583	0.485	1	0.42	0.279
CCN(CCO)CCCOc1ccc2c(Nc3cc(CC(=O)Nc4cccc(F)c4)[nH]n3)ncnc2c1 [AZD2811] + O=C(c1cc(Cc2n[nH]c(=O)c3ccccc23)ccc1F)N1CCN(C(=O)C2CC2)CC1 [Olaparib] (first compound max 1 µM, 7x7, partner max 10 µM)	0.0087	0.945	0.162	0.218	0.177	0.118	0.824	0.322	0.413	0.301	0.226	0.271	0.155	0.19	0.203	0.223	0.365	1	0.212	0.195
CN(CCO)CC[C@H](CSc1ccccc1)Nc1ccc(S(=O)(=O)NC(=O)c2ccc(N3CCC([C@@H](O)c4ccccc4-c4ccc(Cl)cc4)CC3)cc2)cc1S(=O)(=O)C(F)(F)F [AZD4320] + C1CN(CCC1(C(=O)N[C@@H](CCO)C2=CC=C(C=C2)Cl)N)C3=NC=NC4=C3C=CN4 [Capivasertib] (first compound max 1 µM, 7x7, partner max 3 µM)	-0.0545	0.983	0.158	0.507	0.229	0.0266	0.146	0.23	0.486	0.137	0.197	0.285	0.0615	0.575	0.403	0.443	0.0802	0.956	0.199	0.37
CN(CCO)CC[C@H](CSc1ccccc1)Nc1ccc(S(=O)(=O)NC(=O)c2ccc(N3CCC([C@@H](O)c4ccccc4-c4ccc(Cl)cc4)CC3)cc2)cc1S(=O)(=O)C(F)(F)F [AZD4320] + C=CCn1c(=O)c2cnc(Nc3ccc(N4CCN(C)CC4)cc3)nc2n1-c1cccc(C(C)(C)O)n1 [AZD1775] (first compound max 1 µM, partner max 1 µM)	-0.0023	1	0.324	0.904	0.373	0.775	0.549	0.632	0.783	0.292	0.328	0.845	0.613	0.92	0.983	0.349	0.739	1	0.523	0.39
CN(CCO)CC[C@H](CSc1ccccc1)Nc1ccc(S(=O)(=O)NC(=O)c2ccc(N3CCC([C@@H](O)c4ccccc4-c4ccc(Cl)cc4)CC3)cc2)cc1S(=O)(=O)C(F)(F)F [AZD4320] + CCN(CCO)CCCOc1ccc2c(Nc3cc(CC(=O)Nc4cccc(F)c4)[nH]n3)ncnc2c1 [AZD2811] (first compound max 1 µM, 7x7, partner max 1 µM)	0.134	1	0.12	0.355	0.247	0.233	0.914	0.113	0.69	0.238	0.492	0.269	0.0831	0.856	0.554	0.238	0.593	0.755	0.282	0.149
